From US20130005811A1, “ANTIMICROBIAL TREATMENT FOR SEEDS AND SPROUTS” (priority 2010, published 2013)
“And” between values parts separate entries of the source, which are not always exact repeats. Equal values may be shown once. Marks after values point to notes of the source that are not given here.

Legend:
E. coli O157:H7 [1] = experiment: E. coli O157:H7 on alfalfa seeds with an initial inoculum of 10^4 CFU/g; format: cell-based, Escherichia coli O157:H7
E. coli O157:H7 [2] = experiment: Inactivation of E. coli O157:H7 on alfalfa seeds inoculated with 10^8 CFU/g; format: cell-based, Escherichia coli O157:H7
Description: Five isolates of Escherichia coli O157:H7, including strain 932 (human isolate), E009 (beef isolate), E0018 (cattle isolate), E0122 (cattle isolate), E0139 (deer jerky isolate); and five isolates of Salmonella typhimurium DT104, including strain H2662 (cattle isolate), 11942A (cattle isolate), 13068A (cattle isolate), 152N17-1 (dairy isolate) and H3279 (human isolate) were used. Nalidixic acid-resistant (50 μg/ml) E. coli O157:H7 were used to facilitate enumeration. Each E. coli O157:H7 and Salmonella strain was grown in tryptic soy broth (TSB, Beckon Dickinson, Sparks, Md.) at 37° C. for 18 hr. Approximately equal cell numbers of each of the five strains were combined and used as a 5-strain mixture with cell numbers being adjusted by spectrophotometric (Spectronic Instruments, Rochester, N.Y.) determination as described in Zhao et al., (2009) J. Food Prot. 72: 928-936, incorporated herein by reference in its entirety. Bacterial cell numbers were confirmed by plating 0.1 ml of serial dilutions (1:10) in 0.1% peptone on tryptic soy agar (TSA, Beckon Dickinson) and Sorbitol MacConkey agar (SMA, Oxoid, Hampshire, UK) for E. coli O157:H7, and TSA and XLD agar (Beckon Dickinson) for Salmonella and incubating all plates at 37° C. for 24 hr, after which colonies were counted.
Levulinic acid (0.5%) and 0.05% sodium dodecyl sulfate (SDS) obtained from Sigma-Aldrich (St. Louis, Mo.) were tested in combination at 21±2° C. for their antimicrobial activity to E. coli O157:H7 and S. typhimurium on alfalfa seeds as a wash treatment. Calcium hypochlorite (Arch Chemicals, Smyrna, Ga.) at 20,000 μg/ml (ppm) was used as the positive control, and deionized water was used as the negative control.
Before each trial, 25 ml of sterile tap water and 25 g of alfalfa seeds were added to a WHIRL-PAK® bag (Nasco, Fort Atkinson, Wis.) and pummeled in a stomacher blender at 150 rpm for 1 min. Duplicate 0.1 ml portions of the contents were plated on SMA, XLD, and TSA plates to detect E. coli O157:H7 and Salmonella, and enumerate aerobic bacteria counts according to the protocols described below. Only E. coli O157:H7-negative and Salmonella-negative alfalfa seeds were used. Dry seeds (50 g) were individually placed in a sterilized glass beaker (1 L) and 5 ml of a mixture of E. coli O157:H7 or S. typhimurium DT 104 (high inocula at 10^8-10^9 CFU/ml and low inocula at 10^3-10^4 CFU/ml) was inoculated on the surface of the seeds in each glass beaker under a laminar flow hood. A sterile plastic spoon was used to mix for 2 min the seeds with bacterial suspension. The glass beakers were held in a laminar flow hood for 1 hr, 4 hr, 24 hr, 48 hr, and 72 hr with intermittent mixing by plastic spoon before use for chemical treatment.
Inactivation of E. coli O157:H7 and Salmonella on Alfalfa Seeds: Inoculated, dried alfalfa seeds (50 g samples) were placed in a 1000 ml glass beaker containing 200 ml of treatment solution and agitated by a magnetic stir bar at 150 ppm at 21° C. for 0, 1, 2, 5, 10, 20, 30, and 60 min. Following treatment, 25 g of seeds was placed in a stomacher bag containing 25 ml 0.1M phosphate buffer, pH 7.2 (PBS) for levulinic acid plus SDS-treated seeds or neutralizing buffer (50×) for calcium hypochlorite-treated seeds and pummeled for 1 min. at 150 rpm in a stomacher blender (Seward, Ltd., Worthing, England). The suspension was serially (1:10) diluted in 0.1% peptone water and 0.1 ml of each dilution was surface-plated in duplicate onto TSA and Sorbitol MacConkey agar containing 50 μg nalidixic acid/ml (TSA-NA and SMA-NA) for E. coli O157:H7, and on TSA and XLD containing ampicillin (32 μg/ml), tetracycline (16 μg/ml) and streptomycin (64 μg/ml) (TSA+ and XLD+) for S. typhimurium DT 104. All plates were incubated at 37° C. for 48 hr.

alfalfa seeds = experiment: Determination of alfalfa seed germination percentage; format: in vivo; conditions: for Germination rate, average: average of 3 replicas
Description: Treated and non-treated seeds (5 g or number of seeds counted per replicate) were placed on the surface of a plastic tray. Three plastic trays were stacked vertically and top tray was filled with 100 ml of sterile deionized water or tap water which fed to the lower trays to maintain uniform moisture content for the seeds. The seeds were incubated at 22° C. for 72 hr. Each evaluation was based on three replicates of 200-400 seeds each. A seed was considered to have germinated if the seed coat was broken and a visible sprout was extending at least 8 mm from the original seed. Swollen seeds or ruptured seeds with sprout tissue still inside were not counted as germinated, because such seeds rarely sprouted completely after an additional 24 hr of incubation.

[3] = dried at 21° C. for 2 hr, treated for 20 min (10 min in beaker and 10 min in a stomacher bag) at 21° C.
[4] = treatment for 1 h at 21° C., Ca(OCl)2 pH 11.4

SMILES: [Ca+2].[O-]Cl.[O-]Cl [20,000 ppm, Ca(OCl)2, pH 11.4, Calcium hypochlorite]
- E. coli O157:H7 on treated seeds by direct plating method (E. coli O157:H7 [1]; 10 min in glass beaker then pummeled 10 min in stomacher bag): negative
- E. coli O157:H7 count in sample No. 1-10 (seeds) (E. coli O157:H7 [1]; [3]): −
- E. coli O157:H7 count in sample No. 1-10 (treated supernatant) (E. coli O157:H7 [1]; [3]): −
- E. coli O157:H7 in solutions used for treatment (E. coli O157:H7 [1]; enrichment culture after use): negative
- E. coli O157:H7 detection in samples treated for 10 min (E. coli O157:H7 [1]; none pathogen-positive by direct plating): sporadically positive by enrichment culture assay
- E. coli O157:H7 counts on seeds (E. coli O157:H7 [2]; dried for 4 hr, treated for 0 min (actual time 0 delayed by 20 to 30 seconds)): +^b (below the minimum detection level by direct plating (<0.7 log CFU/ml), but positive by enrichment culture)
- E. coli O157:H7 counts on seeds (E. coli O157:H7 [2]; dried for 4 hr, treated for 1 min): + (below the minimum detection level by direct plating (<0.7 log CFU/ml), but positive by enrichment culture)
- E. coli O157:H7 counts on seeds (E. coli O157:H7 [2]; dried for 4 hr, treated for 2 min): −^c
- E. coli O157:H7 counts on seeds (E. coli O157:H7 [2]; dried for 4 hr, treated for 5 min): + (below the minimum detection level by direct plating (<0.7 log CFU/ml), but positive by enrichment culture)
- E. coli O157:H7 counts on seeds (E. coli O157:H7 [2]; dried for 4 hr, treated for 10 min): 1.7 CFU/g
- E. coli O157:H7 counts on seeds (E. coli O157:H7 [2]; dried for 4 hr, treated for 20 min): 2.0 CFU/g
- E. coli O157:H7 counts on seeds (E. coli O157:H7 [2]; dried for 4 hr, treated for 30 min): 1.7 CFU/g
- E. coli O157:H7 counts on seeds (E. coli O157:H7 [2]; dried for 4 hr, treated for 60 min): + (below the minimum detection level by direct plating (<0.7 log CFU/ml), but positive by enrichment culture)
- E. coli O157:H7 counts on seeds (E. coli O157:H7 [2]; dried for 24 hr, treated for 0 min): + (below the minimum detection level by direct plating (<0.7 log CFU/ml), but positive by enrichment culture)
- E. coli O157:H7 counts on seeds (E. coli O157:H7 [2]; dried for 24 hr, treated for 1 min): −
- E. coli O157:H7 counts on seeds (E. coli O157:H7 [2]; dried for 24 hr, treated for 2 min): −
- E. coli O157:H7 counts on seeds (E. coli O157:H7 [2]; dried for 24 hr, treated for 5 min): −
- E. coli O157:H7 counts on seeds (E. coli O157:H7 [2]; dried for 24 hr, treated for 10 min): + (below the minimum detection level by direct plating (<0.7 log CFU/ml), but positive by enrichment culture)
- E. coli O157:H7 counts on seeds (E. coli O157:H7 [2]; dried for 24 hr, treated for 20 min): −
- E. coli O157:H7 counts on seeds (E. coli O157:H7 [2]; dried for 24 hr, treated for 30 min): −
- E. coli O157:H7 counts on seeds (E. coli O157:H7 [2]; dried for 24 hr, treated for 60 min): + (below the minimum detection level by direct plating (<0.7 log CFU/ml), but positive by enrichment culture)
- E. coli O157:H7 counts on seeds (E. coli O157:H7 [2]; dried for 48 hr, treated for 0 min): + (below the minimum detection level by direct plating (<0.7 log CFU/ml), but positive by enrichment culture)
- E. coli O157:H7 counts on seeds (E. coli O157:H7 [2]; dried for 48 hr, treated for 1 min): −
- E. coli O157:H7 counts on seeds (E. coli O157:H7 [2]; dried for 48 hr, treated for 2 min): + (below the minimum detection level by direct plating (<0.7 log CFU/ml), but positive by enrichment culture)
- E. coli O157:H7 counts on seeds (E. coli O157:H7 [2]; dried for 48 hr, treated for 5 min): −
- E. coli O157:H7 counts on seeds (E. coli O157:H7 [2]; dried for 48 hr, treated for 10 min): −
- E. coli O157:H7 counts on seeds (E. coli O157:H7 [2]; dried for 48 hr, treated for 20 min): −
- E. coli O157:H7 counts on seeds (E. coli O157:H7 [2]; dried for 48 hr, treated for 30 min): −
- E. coli O157:H7 counts on seeds (E. coli O157:H7 [2]; dried for 48 hr, treated for 60 min): −
- E. coli O157:H7 counts on seeds (E. coli O157:H7 [2]; dried for 72 hr, treated for 0 min): + (below the minimum detection level by direct plating (<0.7 log CFU/ml), but positive by enrichment culture)
- E. coli O157:H7 counts on seeds (E. coli O157:H7 [2]; dried for 72 hr, treated for 1 min): + (below the minimum detection level by direct plating (<0.7 log CFU/ml), but positive by enrichment culture)
- E. coli O157:H7 counts on seeds (E. coli O157:H7 [2]; dried for 72 hr, treated for 2 min): + (below the minimum detection level by direct plating (<0.7 log CFU/ml), but positive by enrichment culture)
- E. coli O157:H7 counts on seeds (E. coli O157:H7 [2]; dried for 72 hr, treated for 5 min): −
- E. coli O157:H7 counts on seeds (E. coli O157:H7 [2]; dried for 72 hr, treated for 10 min): + (below the minimum detection level by direct plating (<0.7 log CFU/ml), but positive by enrichment culture)
- E. coli O157:H7 counts on seeds (E. coli O157:H7 [2]; dried for 72 hr, treated for 20 min): + (below the minimum detection level by direct plating (<0.7 log CFU/ml), but positive by enrichment culture)
- E. coli O157:H7 counts on seeds (E. coli O157:H7 [2]; dried for 72 hr, treated for 30 min): −
- E. coli O157:H7 counts on seeds (E. coli O157:H7 [2]; dried for 72 hr, treated for 60 min): −
- Reduction of E. coli O157:H7 population (E. coli O157:H7 [2]; seeds dried for 4 hr, treated for up to 60 min): greater than 6 log CFU/g
- E. coli O157:H7 detection after treatment (E. coli O157:H7 [2]; seeds dried for 24 hr, treated for 5 min): only detectable on seeds by selective enrichment culture
- Effect on alfalfa seed germination (alfalfa seeds; 1 hr at 21° C., compared to tap water): substantially reduced germination percentage
- Germination rate, average (alfalfa seeds; [4]): 47%
- Germination rate, average (alfalfa seeds; treatment for 1 h at 21° C., listed as 20,000 ppm calcium hypochlorite): 47.3%
- Germination rate, average (alfalfa seeds; treatment for 1 h at 21° C., row): 47%
- Germination Ratio (Percentage), per replica (alfalfa seeds; [4]): 62% and 34% and 46%
- Germination Ratio (germinated/total seeds), per replica (alfalfa seeds; [4]): 124/200 and 68/200 and 92/200
